Data as given in patent US20240207249A1, “COMPOSITIONS AND METHODS FOR TREATING, PREVENTING OR REVERSING AGE-ASSOCIATED INFLAMMATION AND DISORDER” (Brown University, priority 2019, published 2024).
“Also recorded” adds a separate entry of the source. Like-named read-outs stand apart in the source and are kept apart here.

Key:
[1] = biological target: human L1 EN domain (1-239) (Homo sapiens (Human), UniProt O00370); experiment: plasmid nicking L1 EN activity biochemical assay
APE-1 = APE-1 (Homo sapiens (Human), UniProt P27695); conditions: cited from earlier work
L1 EN = L1 EN (Homo sapiens (Human), UniProt O00370); experiment: fluorescent oligonucleotide nicking assay; format: biochemical
L1 retrotransposition = L1 retrotransposition dual-luciferase reporter cellular assay in HeLa-M2 cells; format: cell-based, human; conditions: for Cellular assay: retrotransposition efficiency (mean ± SD): Table 2
[2] = system: senescent human diploid fibroblasts (LF1); experiment: RT-qPCR of inflammatory markers in replicative senescent cells; format: cell-based
[3] = system: full-length L1 (ORF1 and ORF2) in HeLa Tet-On cells; experiment: L1-induced DNA damage, γ-H2AX immunofluorescence, full-length L1 expression; format: cell-based, human
[4] = solubility remark in cellular assay column; conditions: reason for no cellular data
[5] = system: L1 EN domain in HeLa Tet-On cells; experiment: L1-induced DNA damage, γ-H2AX immunofluorescence and neutral comet assay, EN domain-only expression; format: cell-based, human
[6] = system: senescent human diploid fibroblasts (LF1); experiment: RNA-seq transcriptomic analysis of senescent cells; format: cell-based; conditions: IFN gene set and aging gene set
HeLa cells = conditions: human
[7] = in vitro assays with purified EN

Sequence of human L1 EN domain (1-239) (O00370 1-239): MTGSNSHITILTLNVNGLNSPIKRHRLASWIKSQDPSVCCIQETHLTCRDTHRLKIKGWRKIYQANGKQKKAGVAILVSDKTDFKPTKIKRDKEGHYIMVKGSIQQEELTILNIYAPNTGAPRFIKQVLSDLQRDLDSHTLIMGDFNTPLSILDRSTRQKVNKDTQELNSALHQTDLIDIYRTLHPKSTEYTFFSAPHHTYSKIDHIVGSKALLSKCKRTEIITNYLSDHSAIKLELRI
Sequence of L1 EN (O00370 1-239): as above
Sequence of APE-1 (P27695 whole entry): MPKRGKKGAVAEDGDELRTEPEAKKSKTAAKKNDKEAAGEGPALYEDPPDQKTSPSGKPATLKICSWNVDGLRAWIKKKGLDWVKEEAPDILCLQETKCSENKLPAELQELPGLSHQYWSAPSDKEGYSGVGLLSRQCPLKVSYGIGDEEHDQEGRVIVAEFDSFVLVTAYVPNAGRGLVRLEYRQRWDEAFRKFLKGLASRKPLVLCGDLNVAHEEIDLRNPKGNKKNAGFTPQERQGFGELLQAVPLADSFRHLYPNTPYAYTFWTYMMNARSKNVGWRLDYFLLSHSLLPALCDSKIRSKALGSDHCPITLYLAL

SMILES	L1 EN inhibition in the biochemical assay (in words) [1]	Biochemical assay: maximum inhibition ([1]; plasmid nicking assay)	Biochemical assay: concentration at maximum inhibition ([1]; plasmid nicking assay)	Biochemical assay: concentration at maximum inhibition [1]	Biochemical assay: maximum inhibition [1]	effect on retrotransposition in the cellular reporter assay (in words) (L1 retrotransposition)	also measured
O=C(O)[C@H](CCCCNc1ccc([N+](=O)[O-])cc1[N+](=O)[O-])Nc1ccc([N+](=O)[O-])cc1[N+](=O)[O-] [AD2]	effective against the L1 EN			1 mM FIG. 2B	100% inhibition at	did not significantly impact retrotransposition in cells	in vitro activity against EN (in words) (L1 EN): clear activity in vitro; Ki (APE-1): 13 µM
C/C(C[C@H](c1ccccc1)c1c(O)c2ccccc2oc1=O)=N\Nc1ccc([N+](=O)[O-])cc1[N+](=O)[O-] [AD3]				250 μM FIG. 2C	100% inhibition at	best inhibition in the retrotransposition assay	effect on inflammatory markers in senescent cells (in words) [2]: show efficacy; inhibition of L1-induced DNA damage (in words) [3]: best inhibition
O=[N+]([O-])c1ccc(Nc2ccc(Nc3ccccc3)c(S(=O)(=O)O)c2)c([N+](=O)[O-])c1 [AD4]				1 mM FIG. 2D	100% inhibition at		
Cc1cc(=O)oc2c3c(ccc12)O/C(=N/Nc1ccc([N+](=O)[O-])cc1[N+](=O)[O-])C3=O [AD5]				50 μM FIG. 2E	100% inhibition	did not significantly impact retrotransposition in cells	in vitro activity against EN (in words) (L1 EN): clear activity in vitro; solubility (in words) [4]: (poor solubility)
C/C(=N/Nc1ccc([N+](=O)[O-])cc1[N+](=O)[O-])c1ccc(-n2nncc2C(C)(C)C)cc1 [AD7]				500 μM FIG. 2F	80% inhibition at	high activity in the retrotransposition assay	in vitro activity against EN (in words) (L1 EN): relatively low efficacy in vitro
C[C@@H](Nc1ccc([N+](=O)[O-])cc1[N+](=O)[O-])C(=O)O [AD8]				15 mM FIG. 2G	100% inhibition at		
O=C(CCCCCCCCCCC(=O)Nc1cccc([N+](=O)[O-])c1)Nc1cccc([N+](=O)[O-])c1 [AD11]				10.0 μM FIG. 2J	100% inhibition at		inhibition of L1-induced DNA damage (in words) [5]: better efficacy
COc1ccc2c(c1)C(=O)N(CCc1ccc(S(=O)(=O)NC(=O)NC3CCCCC3)cc1)C(=O)C2(C)C [AD12, Gliquidone, reference compound]						reduced retrotransposition in the cellular reporter assay; also recorded: high activity in the retrotransposition assay; also recorded: best inhibition in the retrotransposition assay	gene set expression by RNA-seq (in words) [6]: decreased expression; effect on inflammatory markers in senescent cells (in words) ([2]; 1 month treatment): show efficacy; inhibition of L1-induced DNA damage (in words) [3]: best inhibition
O=C1c2ccc(Oc3ccc4c(c3)C(=O)N(Nc3ccc([N+](=O)[O-])cc3[N+](=O)[O-])C4=O)cc2C(=O)N1Nc1ccc([N+](=O)[O-])cc1[N+](=O)[O-] [AD13]	effective in the biochemical assay			500 μM FIG. 2L	100% inhibition at		
CCC1=C(C)CN(C(=O)NCCc2ccc(S(=O)(=O)NC(=O)N[C@H]3CC[C@H](C)CC3)cc2)C1=O [AD15, Glimepiride, reference compound]	inhibited L1 EN activity in the biochemical assay	100% inhibition at	2.5 mM FIG. 2N			reduced retrotransposition in the cellular reporter assay	Cellular assay: retrotransposition efficiency (mean ± SD) (L1 retrotransposition; 50 μM): 50 μM: 17.1
Cc1ccc(NC(=O)CSc2nc(-c3ccccc3F)nc3c2Cc2c(CO)cnc(C)c2O3)cc1 [AD28]							Toxicity at concentration (HeLa cells): Toxicity at 2.5 μM
O=C(NCCCCCCNC(=O)Nc1cccc([N+](=O)[O-])c1)Nc1cccc([N+](=O)[O-])c1 [AD32]						high activity in the retrotransposition assay	in vitro activity against EN (in words) (L1 EN): relatively low efficacy in vitro
COc1ccc([N+](=O)[O-])cc1NC(=O)c1ccc2c(c1)N(Cc1cc(C)ccc1C)C(=O)c1ccccc1S2(=O)=O [AD34]						did not significantly impact retrotransposition in cells	in vitro activity against EN (in words) (L1 EN; [7]): clear activity in vitro
COc1ccc(OC)c(NS(=O)(=O)c2ccc(NS(=O)(=O)c3cccc([N+](=O)[O-])c3)cc2)c1 [AD36]						high activity in the retrotransposition assay	in vitro activity against EN (in words) (L1 EN; [7]): relatively low efficacy in vitro
O=C(Cn1nc(-c2ccc(Br)cc2)ccc1=O)NC[C@H]1CC[C@H](C(=O)O)CC1 [AD43]						high activity in the retrotransposition assay	in vitro activity against EN (in words) (L1 EN; [7]): relatively low efficacy in vitro

Now from value to compound, other results behind:

L1 EN inhibition in the biochemical assay (in words) [1]	Biochemical assay: maximum inhibition ([1]; plasmid nicking assay)	Biochemical assay: concentration at maximum inhibition ([1]; plasmid nicking assay)	SMILES	Biochemical assay: concentration at maximum inhibition [1]	Biochemical assay: maximum inhibition [1]	effect on retrotransposition in the cellular reporter assay (in words) (L1 retrotransposition)	also measured
did not inhibit the L1 EN	No inhibition		CCn1c2ccccc2c2cc(/C=N\Nc3cc(C)nc4cc5c(cc34)OCO5)ccc21 [AD1, reference compound]				Ki (APE-1): 0.12 µM
	90% inhibition at	750 μM FIG. 2F	Cc1cc([N+](=O)[O-])ccc1NC(=S)NC(=O)C(c1ccccc1)c1ccccc1 [AD6]				Cellular assay: retrotransposition efficiency (mean ± SD) (L1 retrotransposition; 10 μM): 10 μM: 79.1
	80% inhibition at	750 μM FIG. 2H	C[C@H]1C[C@H](C)CN(CCCNc2ccc(C(=O)Nc3ccc(C(F)(F)F)cc3)cc2[N+](=O)[O-])C1 [AD9]			high activity in the retrotransposition assay	in vitro activity against EN (in words) (L1 EN; [7]): relatively low efficacy in vitro
	100% inhibition at	100 μM FIG. 21	O=C(NC(NC(=O)c1ccccc1)c1cccc([N+](=O)[O-])c1)c1ccccc1 [AD10]				Cellular assay: retrotransposition efficiency (mean ± SD) (L1 retrotransposition; 50 μM): 50 μM: 68.9
effective in the biochemical assay	50% inhibition at	500 μM FIG. 20	Nn1cnn2c(SCC(=O)Cc3ccc(-c4nc5cc(NC(=O)CSc6nnc7n(N)cnn67)ccc5o4)cc3)nnc12 [AD16]				inhibition of L1-induced DNA damage (in words) ([5]; EN domain-only): better efficacy
effective in the biochemical assay	50% inhibition at	750 μM FIG. 2Q	O=C(Nc1ccc(S(=O)(=O)NCc2ccco2)cc1)c1cc(NS(=O)(=O)c2cccs2)cc(NS(=O)(=O)c2cccs2)c1 [AD18]			did not significantly impact retrotransposition in cells	in vitro activity against EN (in words) (L1 EN; [7]): clear activity in vitro
effective in the biochemical assay	75% inhibition at	250 μM FIG. 2R	COc1ccccc1NC(=O)Nc1nc(Nc2ccc(S(=O)(=O)Nc3nc(C)cc(C)n3)cc2)nc(Oc2cccc(O)c2)n1 [AD19]				
